Source: patent US5795857A, “Mimetic insect pyrokinin analogs for insect control” (The United States of America as represented by the …, priority 1996, dated 1998)
“Also recorded” adds a separate entry of the source.

How the values were obtained:
[1] = system: isolated cockroach (Leucophaea maderae) hindgut; assay: Cockroach myotropic bioassay (isolated hindgut); type: cell-based
Protocol: Leucophaea maderae cockroaches were taken from stock colonies maintained at 27° C. and fed dry dog food ad lib. Cockroach hindguts, free of central nervous system (CNS) tissue, were dissected, immersed in saline, and prepared for recording of myogenic activity as previously described (Holman et al., 1991, ibid). Threshold concentrations were determined for each analogue by adding a known quantity of peptide (dissolved in 0.5 ml bioassay saline) to the bioassay chamber containing the hindgut and observing the response on a Gould 2200S oscillograph recorder. The quantity of the peptide analogues was calculated from the values obtained for Phe and/or Leu in the amino acid analysis. The threshold concentration was defined as the minimum concentration of peptide in the chamber required to evoke an observable change in the frequency (50%) or amplitude of contractions (5%) within 1 min and sustained for 3 min. Threshold concentrations were obtained from five cockroach hindguts on 5 consecutive days for each peptide. Quantitative data for dose-response plots were obtained as previously described (Holman et al., 1991, ibid).

[2] = system: virgin females of Heliothis virescens; assay: Pheromonotropic assay (injection); type: in vivo
Protocol: Pupae of H. virescens were obtained from a laboratory colony maintained at the Insect Attractants, Behavior and Basic Biology Research Laboratory, USDA-ARS, in Gainesville, Fla. The pupae were separated by sex and the males were discarded. After eclosion, the females were held in 4-1 cages and provided with cotton wicks soaked with 5% sucrose solution. The insects were held at 25°±2° C, 65±3% relative humidity with a 12:12 (L:D) photoperiod. Virgin females were used for bioassays 2 and 3 days after eclosion during the 7th-8th hour of the photophase when endogenous levels of pheromone are very low (Abernathy, 1995, Regulation of sex pheromone production and oviposition in virgin females of noctuid moths, doctoral dissertation, University of Florida, Gainesville, Fla., pp. 1-107).
Pheromone biosynthesis neuropeptide from H. zea (Hez--PBAN) and the carboranyl pseudopeptide Cbe--Thr--Pro--Arg--Leu--NH2 were dissolved in physiological saline (Christensen et al., 1991, Proc. Natl. Acad. Sci. USA, 88:4971-4975). Female H. virescens insects were injected through the side of the third abdominal segment using a 26-ga needle with 20 μl of the above solutions. Each female received a dose of 0.01, 0.03, 0.1, 0.3, 1, 3, 10, 30, 100 or 300 pmol. After 1 h of incubation, the terminal abdominal segments, which contain the pheromone gland, were excised and placed in 10 μl of hexane containing 10 ng each of internal standards (octadecane and nonadecane) used for quantitation and calculation of relative retention indices. The pheromone gland extracts were analyzed for the amount of (Z)-11-hexadecenal (Z11-16:AL), the major sex pheromone component of H. virescens (Klun et al., 1980, J. Chem. Ecol., 6:165-175) by capillary gas chromatography. Hewlett-Packard 5890 gas chromatographs were equipped with splitless injectors, flame ionization detectors, and 30 m×0.25 mm (i.d.) fused silica "SPB 10" (polar) or "SPB1" (apolar) columns (Supelco). Conditions of chromatography were as follows: initial temperature=60° C.; injector operated in the splitless mode for 0.5 min; oven temperature increased by 30° C./min after 1 min; final temperature=190° C. ("SPB10") or 200° C. ("SPB1"); helium carrier gas at a linear flow velocity of 18 cm/s. A Nelson Analytical 3000° acquisition system (Cupertino, Calif.) was used to collect and analyze the data (Teal et al., 1989, Proc. Natl. Acad. Sci. USA, 86:2488-2492).
After the dose response of Hez--PBAN was completed, the […] dose was chosen to use for comparison with the carboranyl pseudopeptide assayed here. Insects were also injected with saline alone as a control. The pseudopeptide was prepared by dilution with saline as described above. Based on the dose-response for the activity of Hez--PBAN, […] were chosen to assess the pheromonotropic activity of the carboranyl pseudopeptide. Females were injected with 20 μl containing 0.01, 0.03, 0.1, 0.3, 1, 3, 10, 30, 100, or 300 pmol. Each bioassay consisted of one dose of several different peptides along with saline and Hez--PBAN controls. The amount of pheromone present in extracts of the pheromone glands of females from each group was compared with that produced by females injected with 5 pmol of Hez--PBAN during that particular bioassay. After all the bioassays were completed, the amount of pheromone produced by each insect was calculated as a percentage of the amount of pheromone produced by females treated with Hez--PBAN. Data were analyzed using one-way ANOVA and t-test with "STATVIEW" software. Variability was reported as SEM.
The pheromonotropic activity of Hez--PBAN, Lom--MT--II and [6--Pha--Ala^0 ]Lom--MT--II was first determined by a series of injection bioassays. Peptides were dissolved in physiological saline (Christensen et al., ibid) and diluted to concentrations of 0.003, 0.01, 0.03, 0.1, 0.3, 1.0, 3.0 and 10.0 pmol/μl. Insects were injected through the side of the 3rd abdominal segment using a 26 ga. needle with 20 μl of the above solutions. […]

[3] = system: fleshfly larvae; assay: Acceleration of pupariation after injection into fleshfly larvae; type: in vivo, Sarcophaga bullata; settings: injected into fleshfly larvae
[4] = isolated hindgut, FIG. 2, listed as carboranyl pseudotetrapeptide

For Cbe--Thr--Pro--Arg--Leu--NH2, the “potency relative to the 8-mer LPK” value ([1]; hindgut threshold concentration) was 10 X, the “reversibility of myostimulatory response by saline rinse” value ([1]; isolated hindgut, FIG. 2, listed as carboranyl analog) was “could not be reversed even following repeated saline rinses; also recorded: cannot be reversed even following repeated saline rinses” and the “period over which myostimulatory activity subsides after rinse” value [1, 4] was “about 20 minutes”. The “reversibility of myostimulatory response by saline rinse” value [1, 4] was “cannot be reversed by one or more saline rinses”, the “Threshold Concentration, myostimulation of the isolated cockroach hindgut” value ([1]; minimum concentration evoking observable change in frequency (50%) or amplitude (5%) of contractions) was 70 pM and the “potency relative to 33-membered HezPBAN, injection” value ([2]; H. virescens) was 10 fold. For the same substance, the “ED50, pheromone production following injection” value ([2]; H. virescens females, FIG. 3) was 0.1 pmoles/female, the “ED50, pheromone production via injection” value ([2]; H. virescens females, glands extracted 60 min after injection) was 0.1 pmol and the “dose eliciting a 100% response, injection” value ([2]; H. virescens, FIG. 3) was 2.5 pmoles/female. For the same substance, the “potency relative to 33-membered HezPBAN, injection” value ([2]; H. virescens, listed as carboranyl analog) was “equipotent”, the “Maximal Response via injection (dose)” value ([2]; maximal pheromone production relative to 5 pmoles PBAN via injection) was 2.5 pmol and the concentration accelerating pupariation [3] was no more than 0.25 picomoles/insect.
